{"source": "patent US20190031618A1", "about": "“BENZIMIDAZOLE DERIVATIVES USEFUL AS CB-1 INVERSE AGONISTS” (Janssen Pharmaceutica NV, priority 2015, published 2019)", "key": {"[1]": {"target": "Human CB1R (Cannabinoid receptor 1) (Homo sapiens, UniProt P21554)", "sequence (P21554 whole entry)": "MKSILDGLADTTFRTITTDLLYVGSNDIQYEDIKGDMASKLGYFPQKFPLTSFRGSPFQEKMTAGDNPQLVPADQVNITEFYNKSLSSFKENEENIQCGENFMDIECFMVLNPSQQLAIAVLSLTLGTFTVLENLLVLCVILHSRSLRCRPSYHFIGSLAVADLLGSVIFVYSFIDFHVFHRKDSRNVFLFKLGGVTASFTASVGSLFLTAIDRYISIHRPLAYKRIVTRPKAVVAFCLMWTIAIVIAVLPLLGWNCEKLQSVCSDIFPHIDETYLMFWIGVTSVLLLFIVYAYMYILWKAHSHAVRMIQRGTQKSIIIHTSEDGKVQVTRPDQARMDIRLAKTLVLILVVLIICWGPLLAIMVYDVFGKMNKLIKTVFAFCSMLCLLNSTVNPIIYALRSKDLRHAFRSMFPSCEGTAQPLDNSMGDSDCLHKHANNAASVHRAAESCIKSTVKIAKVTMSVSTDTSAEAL", "test": "CB-1 in vitro cAMP (HTRF) assay", "type": "cell-based", "details": "HEK cells, cAMP HTRF, 250 nM forskolin; mean where tested more than once; read-out: CB1 HEK_cAMP EC50", "procedure,_shortened": "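Intracellular cAMP from HTRF ratio (d2-cAMP vs Eu-cryptate anti-cAMP), converted to nM via per-plate standards, in stable human CB1R HEK-293 cells.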"}, "[2]": {"test": "Five-Day Study in DIO Mice: plasma and brain compound levels", "details": "mouse, in vivo, 30 mg/kg"}, "DIO mice": {"tested_on": "DIO mice", "test": "Five-Day Study in DIO Mice: food intake, body weight, plasma insulin, fed blood glucose", "type": "in vivo", "details": "for Plasma Insulin: 30 mg/kg, day 5, two hours after dosing, (Std Err)", "source_text": "Male 14-20-week old diet-induced obese mice are ordered from Taconic. Mice were started on a 60% fat diet (D12492, Research Diets, New Brunswick, N.J.) at 6 weeks of age. Mice are single-housed.\nMale Sprague Dawley rats are ordered from Charles River (225-250 gm upon arrival). They are fed standard chow diet (Purina 5001) and housed 2 per cage. Male C57bl/6j mice are ordered from Charles River at 22-25 g and housed 3 per cage. They are fed standard chow (Purina 5001). All animals are housed in a temperature-controlled room with 12-hour light/dark cycle. Animals are given food and water ad libitum, except as noted.\nTest compounds are administered by oral gavage (5 ml kg^−1 or 10 ml kg^−1)."}, "[3]": {"test": "Chronic DIO Mouse: plasma and brain concentrations", "type": "in vivo", "details": "oral, DIO mice, 2 Hours Post Dose", "procedure": "DIO mice received vehicle, test compound (@ 1, 3, 10, and 30 mg/kg) daily for 26 days. At the end of the experiment, the mice were euthanized and blood and tissues were collected."}, "[4]": {"details": "30 mg/kg daily oral, Day 1, (Std Err)"}, "[5]": {"details": "30 mg/kg daily oral, Day 2, (Std Err)"}, "[6]": {"details": "30 mg/kg daily oral, Day 3, (Std Err)"}, "[7]": {"details": "30 mg/kg daily oral, Day 4, (Std Err)"}, "[8]": {"details": "30 mg/kg group, Day 0, (Std Err)"}}, "note": "“And” between values parts separate entries of the source, which are not always exact repeats. Equal values may be shown once.", "data": [{"smiles": "O=S(=O)(N1CCC(Cn2c(C3CC3)nc3ccc(C(c4ccc(Cl)cc4)c4ccc(Cl)cc4)cc32)CC1)C(F)(F)F", "note": "[Example 316]", "values": [{"measurement": "EC50", "setting": "[1]", "value": 2.8, "unit": "nM"}]}, {"smiles": "COc1ccc(C(c2ccc(OC)cc2)c2ccc3nc(C4CCC4)n(C4CCN(S(=O)(=O)C(F)(F)F)CC4)c3c2)cc1", "note": "[Example 320]", "values": [{"measurement": "EC50", "setting": "[1]", "value": 69.3, "unit": "nM"}]}, {"smiles": "CCc1nc2ccc(C(c3ccc(Cl)cc3)c3ccc(Cl)cc3)cc2n1CC1CCN(S(=O)(=O)C(F)(F)F)CC1", "note": "[Example 315]", "values": [{"measurement": "EC50", "setting": "[1]", "value": 5.3, "unit": "nM"}]}, {"smiles": "CCc1nc2ccc(C(c3ccc(Cl)cc3)c3ccc(Cl)cc3)cc2n1C1CCN(S(=O)(=O)C(F)(F)F)CC1", "note": "[Example 328]", "values": [{"measurement": "EC50", "setting": "[1]", "value": 8.4, "unit": "nM"}, {"measurement": "concentration at 2 h", "setting": "[2]", "value": "8360 ng/mL and 291 ng/g"}, {"measurement": "Mean Body Weight", "setting": "DIO mice; [4]", "value": "41.2 (0.7) Grams"}, {"measurement": "Mean Daily Food Intake", "setting": "DIO mice; [4]", "value": "0.5 (0.1) Grams"}, {"measurement": "Mean Body Weight", "setting": "DIO mice; [5]", "value": "39.6 (0.6) Grams"}, {"measurement": "Mean Daily Food Intake", "setting": "DIO mice; [5]", "value": "0.5 (0.1) Grams"}, {"measurement": "Mean Body Weight", "setting": "DIO mice; [6]", "value": "38.6 (0.6) Grams"}, {"measurement": "Mean Daily Food Intake", "setting": "DIO mice; [6]", "value": "0.7 (0.1) Grams"}, {"measurement": "Fed Blood Glucose", "setting": "DIO mice; [7]", "value": "154 (7) mg/dL"}, {"measurement": "Mean Body Weight", "setting": "DIO mice; [7]", "value": "38.2 (0.7) Grams"}, {"measurement": "Mean Daily Food Intake", "setting": "DIO mice; [7]", "value": "1.2 (0.1) Grams"}, {"measurement": "Fed Blood Glucose", "setting": "DIO mice; [8]", "value": "183 (9) mg/dL"}, {"measurement": "Mean Body Weight", "setting": "DIO mice; [8]", "value": "43.6 (0.7) Grams"}, {"measurement": "Plasma Insulin", "setting": "DIO mice", "value": "1.31 (0.13) ng/mL"}]}, {"smiles": "O=C(O)c1cccc(S(=O)(=O)N2CCC(n3c(C4CC4)nc4ccc(C(c5ccc(Cl)cc5)c5ccc(Cl)cc5)cc43)CC2)c1", "note": "[Example 242]", "values": [{"measurement": "EC50", "setting": "[1]", "value": 18, "unit": "nM"}]}, {"smiles": "O=C(O)c1cc(F)cc(CN2CCC(n3c(C4CC4)nc4ccc(C(c5ccc(Cl)cc5)c5ccc(Cl)cc5)cc43)CC2)c1", "note": "[Example 89]", "values": [{"measurement": "EC50", "setting": "[1]", "value": 7.2, "unit": "nM"}]}, {"smiles": "O=C(O)c1ccc(CN2CCC(n3c(C4CC4)nc4ccc(C(c5ccc(Cl)cc5)c5ccc(Cl)cc5)cc43)CC2)o1", "note": "[Example 129]", "values": [{"measurement": "EC50", "setting": "[1]", "value": 19.8, "unit": "nM"}]}, {"smiles": "O=C(O)c1ccc(F)c(CN2CCC(n3c(C4CC4)nc4ccc(C(c5ccc(Cl)cc5)c5ccc(Cl)cc5)cc43)CC2)c1", "note": "[Example 92]", "values": [{"measurement": "EC50", "setting": "[1]", "value": 15.9, "unit": "nM"}]}, {"smiles": "O=C(O)c1csc(S(=O)(=O)N2CCC(n3c(C4CC4)nc4ccc(C(c5ccc(Cl)cc5)c5ccc(Cl)cc5)cc43)CC2)c1", "note": "[Example 221]", "values": [{"measurement": "EC50", "setting": "[1]", "value": 8.5, "unit": "nM"}]}, {"smiles": "O=S(=O)(c1cccc(O)c1)N1CCC(n2c(C3CC3)nc3ccc(C(c4ccc(Cl)cc4)c4ccc(Cl)cc4)cc32)CC1", "note": "[Example 259]", "values": [{"measurement": "EC50", "setting": "[1]", "value": 3.7, "unit": "nM"}]}, {"smiles": "O=S(=O)(N1CCC(n2c(C3CCC3)nc3ccc(C(c4ccc(Cl)cc4)c4ccc(Cl)cc4)cc32)CC1)C(F)(F)F", "note": "[Example 318]", "values": [{"measurement": "EC50", "setting": "[1]", "value": 6.9, "unit": "nM"}]}, {"smiles": "O=C(O)c1cccc(CN2CCC(n3c(C4CC4)nc4ccc(C(c5ccc(Cl)cc5)c5ccc(Cl)cc5)cc43)CC2)c1", "note": "[Example 148]", "values": [{"measurement": "EC50", "setting": "[1]", "value": 9.6, "unit": "nM"}, {"measurement": "concentration at 2 h", "setting": "[3]; brain, 1 mg/kg daily, Day 25, read-out: Brain Concentration (Std Dev)", "value": 18.2, "unit": "ng/g"}, {"measurement": "concentration at 2 h", "setting": "[3]; brain, 3 mg/kg daily, Day 25, read-out: Brain Concentration (Std Dev)", "value": 29.9, "unit": "ng/g"}, {"measurement": "concentration at 2 h", "setting": "[3]; brain, 10 mg/kg daily, Day 25, read-out: Brain Concentration (Std Dev)", "value": 42, "unit": "ng/g"}, {"measurement": "concentration at 2 h", "setting": "[3]; brain, 30 mg/kg daily, Day 25, read-out: Brain Concentration (Std Dev)", "value": 73.5, "unit": "ng/g"}, {"measurement": "concentration at 2 h", "setting": "[3]; plasma, 1 mg/kg daily, Day 25, read-out: Plasma Concentration (Std Dev)", "value": 288, "unit": "ng/mL"}, {"measurement": "concentration at 2 h", "setting": "[3]; plasma, 3 mg/kg daily, Day 25, read-out: Plasma Concentration (Std Dev)", "value": 1350, "unit": "ng/mL"}, {"measurement": "concentration at 2 h", "setting": "[3]; plasma, 10 mg/kg daily, Day 25, read-out: Plasma Concentration (Std Dev)", "value": 3430, "unit": "ng/mL"}, {"measurement": "concentration at 2 h", "setting": "[3]; plasma, 30 mg/kg daily, Day 25, read-out: Plasma Concentration (Std Dev)", "value": 15200, "unit": "ng/mL"}]}, {"smiles": "CCc1nc2ccc(C(c3ccc(Cl)cc3)c3nccs3)cc2n1C1CCN(S(=O)(=O)C(F)(F)F)CC1", "note": "(stereo not drawn) [Example 400]", "values": [{"measurement": "EC50", "setting": "[1]", "value": 6, "unit": "nM"}]}, {"smiles": "O=S(=O)(N1CCC(n2c(C3CC3)nc3ccc(C(c4ccc(Cl)cc4)c4ccc(Cl)cc4)cc32)CC1)C(F)(F)F", "note": "[Example 335]", "values": [{"measurement": "EC50", "setting": "[1]", "value": 5.6, "unit": "nM"}, {"measurement": "Mean Body Weight", "setting": "DIO mice; [4]", "value": "42.8 (0.8) Grams"}, {"measurement": "Mean Daily Food Intake", "setting": "DIO mice; [4]", "value": "0.4 (0.1) Grams"}, {"measurement": "Mean Body Weight", "setting": "DIO mice; [5]", "value": "41.4 (0.7) Grams"}, {"measurement": "Mean Daily Food Intake", "setting": "DIO mice; [5]", "value": "0.5 (0.1) Grams"}, {"measurement": "Mean Body Weight", "setting": "DIO mice; [6]", "value": "40.3 (0.6) Grams"}, {"measurement": "Mean Daily Food Intake", "setting": "DIO mice; [6]", "value": "0.5 (0.1) Grams"}, {"measurement": "Fed Blood Glucose", "setting": "DIO mice; [7]", "value": "160 (6) mg/dL"}, {"measurement": "Mean Body Weight", "setting": "DIO mice; [7]", "value": "39.4 (0.6) Grams"}, {"measurement": "Mean Daily Food Intake", "setting": "DIO mice; [7]", "value": "1.1 (0.1) Grams"}, {"measurement": "Fed Blood Glucose", "setting": "DIO mice; [8]", "value": "187 (9) mg/dL"}, {"measurement": "Mean Body Weight", "setting": "DIO mice; [8]", "value": "45.4 (0.7) Grams"}, {"measurement": "Plasma Insulin", "setting": "DIO mice", "value": "2.72 (0.61) ng/mL"}]}, {"smiles": "O=C(O)c1ccc(S(=O)(=O)N2CCC(n3c(C4CC4)nc4ccc(C(c5ccc(Cl)cc5)c5ccc(Cl)cc5)cc43)CC2)o1", "note": "[Example 232]", "values": [{"measurement": "EC50", "setting": "[1]", "value": 17.6, "unit": "nM"}]}, {"smiles": "O=C(O)c1cccc(CN2CCC(n3c(C4CC4)nc4ccc(C(c5ccc(Cl)cc5)c5ccc(Cl)cc5)cc43)CC2)n1", "note": "[Example 125]", "values": [{"measurement": "EC50", "setting": "[1]", "value": 17.7, "unit": "nM"}]}, {"smiles": "O=C(O)c1ccc(S(=O)(=O)N2CCC(n3c(C4CC4)nc4ccc(C(c5ccc(Cl)cc5)c5ccc(Cl)cc5)cc43)CC2)cc1", "note": "[Example 276]", "values": [{"measurement": "EC50", "setting": "[1]", "value": 9.3, "unit": "nM"}]}, {"smiles": "O=C(O)c1ccc(CN2CCC(n3c(C4CC4)nc4ccc(C(c5ccc(Cl)cc5)c5ccc(Cl)cc5)cc43)CC2)nc1", "note": "[Example 124]", "values": [{"measurement": "EC50", "setting": "[1]", "value": 34.9, "unit": "nM"}]}]}
